# Measured values from patent US10610564B2, “IRGM and precision autophagy controls for antimicrobial and inflammatory disease states and methods of detection of autophagy” (STC.UNM, priority 2015, dated 2020).
# Tested on: primary human macrophages
# Test: High content analysis of LC3 puncta in primary human macrophages
# Type: cell-based
# Settings: IFN-γ 4 h
# Experimental: (§1) (A and B) High content image analysis of LC3 puncta in (A) THP-1 cells or (B) human MDM cells treated with IFN-γ for 4 h. HC and mask overlays are as in FIG. 1. (C) Screen data from FIG. 1B showing average±range. (D) Knockdown efficacy of TRIMs were determined by RT-PCR. (E and F) THP-1 cells were treated with (E) escalating doses of IFN-γ for 4 h or (F) 1,000 U/ml of IFN-γ for indicated times, and TRIM20 mRNA levels were determined by quantitative RT-PCR. Values are standardized to (E) no IFN-γ control or (F) 0 h time point. (G) THP-1 cells were subjected to TRIM20 or scrambled siRNA, treated with IFN-γ for 4 h, and HC analysis performed. (H) Knockdown of TRIM20 mRNA levels was examined by quantitative RT-PCR. Values are standardized to control (Scr, scrambled; no IFN-γ). (I) LC3-II conversion in HEK293 cells transfected with GFP-TRIM20 (T20) or GFP. Data, means±SE, n≥3 experiments, except panel (C). Scale bars, 5 μm. *P<0.05, ^†P≥0.05 (t test in (B) or ANOVA (other panels)).
# High content imaging and analysis was performed using a Cellomics V^TI HCS scanner and iDEV software (ThermoScientific). […] Epifluorescnece images were machine analyzed using present scanning parameters and object mask definitions. Hoechst 33342 staining were used to automatically detect cellular outlines based on background staining of the cytoplasm, and the mean count of LC3 puncta per cell was determined.
row,Molecule,autophagy induction (LC3 puncta per cell)
1,"IFN-γ: interferon-gamma (PeproTech), precision autophagy modulator (protein, UniProt P01579 24-161, looked up) Interferon gamma: QDPYVKEAENLKKYFNAGHSDVADNGTLFLGILKNWKEESDRKIMQSQIVSFYFKLFKNFKDDQSIQKSVETIKEDMNVKFFNSNKKKRDDFEKLTNYSVTDLNVQRKAIHELIQVMAELSPAAKTGKRKRSQMLFRG",induced autophagy

# Tested on: TRIM21
# Test: TRIM21 mRNA levels by quantitative RT-PCR in THP-1 cells
# Type: cell-based, human
# Settings: 1,000 U/ml IFN-γ for indicated times
# Experimental: (A) THP-1 cells were treated with 1,000 U/ml of IFN-γ for indicated times, and TRIM21 mRNA levels were determined by quantitative RT-PCR. (B) Co-immunoprecipitation analysis of GFP-TRIM20 with Flag-TRIM21 in HEK293 cells extracts. (C) Knockdown efficacy of TRIM21 level was examined by immunoblotting. (D) Levels of dimerized IRF3 were assessed by native PAGE from THP-1 cells subjected to TRIM21 or control knockdown, untreated with IFN-γ, and transfected with herring testis DNA (HT-DNA). (E and F) THP-1 cells subjected to TRIM21 or control knockdown were infected with a single-round infection HIV1 virus in the presence of 200 U/mL IFN-γ for 20 h, and (E) the levels of dimerized IRF3 or (F) mRNA levels of IFN-β were determined. […]
# (§2) Detection of IRF3 dimerization was performed by native polyacrylamide gel electrophoresis (PAGE) as previously described (Takahasi et al., 2003). Quantitative RT-PCR was performed as previously described (Kimura et al., 2013) using the following primer sets: ULK1, ([…], […]); BECN1, ([…], […]); ACTIN, ([…], […]); TRIM1, ([…], […]); TRIM5, ([…], […]); TRIM8, ([…], […]); TRIM16, ([…], […]); TRIM20, ([…], […]); TRIM21, ([…], […]); TRIM22, ([…], […]); TRIM28, ([…], […]); TRIM56, ([…], […]); and TRIM65, ([…], […]). […]
row,Molecule,TRIM21 expression
1,"IFN-γ: interferon-gamma (PeproTech), precision autophagy modulator (protein, UniProt P01579 24-161, looked up) Interferon gamma: QDPYVKEAENLKKYFNAGHSDVADNGTLFLGILKNWKEESDRKIMQSQIVSFYFKLFKNFKDDQSIQKSVETIKEDMNVKFFNSNKKKRDDFEKLTNYSVTDLNVQRKAIHELIQVMAELSPAAKTGKRKRSQMLFRG",transiently induced

# Tested on: THP-1 cells
# Test: High content analysis of LC3 puncta in THP-1 cells (TRIM family screen conditions)
# Type: cell-based, human
# Settings: IFN-γ 4 h
# Experimental: (A) THP-1 cells were subjected to TRIM knockdown, treated with 1,000 U/mL IFN-γ for 4 h, and high content (HC) analysis was performed using a Cellomics HCS scanner (epifluorescence) and iDEV software. HC (magenta, endogenous LC3B immunofluorescence [IF]; blue, nuclei stained with Hoechst). Mask overlay, software-defined objects (primary objects, cell outlines; internal secondary objects, LC3 puncta). (B) Average count of LC3 puncta per cell from cells treated as in (A) (Data from two 96-well plates with identical siRNA arrangements; the corresponding data are shown in Supplementary FIG. 1C). Encircled are INF-γ-treated wells (right) and wells with vehicle controls (bottom left). TRIM knockdowns that reduced LC3 puncta readout in both two experiments by 3 SDs (horizontal dot lines) from the average of IFN-γ-treated controls (horizontal solid line) are indicated by corresponding TRIM numbers (open circle). TRIMs that were chosen in follow-up experiments in FIG. 1C are also indicated with number. (C) Similar to (B), except that THP-1 cells were subjected to specific TRIM or scrambled (Scr; control) knockdown, and were analyzed in more than quadruplicate manner. […] (E) THP-1 cells were treated with TRIM20 or Scr siRNAs, treated with or without IFN-γ for 4 h in the presence of bafilomycin A1, and LC3-II conversion was determined by immunoblots. […]
row,Molecule,autophagy induction (LC3 puncta per cell)
1,"IFN-γ: interferon-gamma (PeproTech), precision autophagy modulator (protein, UniProt P01579 24-161, looked up) Interferon gamma: QDPYVKEAENLKKYFNAGHSDVADNGTLFLGILKNWKEESDRKIMQSQIVSFYFKLFKNFKDDQSIQKSVETIKEDMNVKFFNSNKKKRDDFEKLTNYSVTDLNVQRKAIHELIQVMAELSPAAKTGKRKRSQMLFRG",induced autophagy

# Tested on: autophagy
# Test: Autophagy assays identifying autophagy modulators
# Type: cell-based
# Settings: not given
row,Molecule,activity as autophagy modulator
1,CC(C)COCC(CN(Cc1ccccc1)c1ccccc1)N1CCCC1 (stereo not shown) [bepridil],agonists or inducers of autophagy
2,CN(Cc1cc(Br)cc(Br)c1N)C1CCCCC1 [bromhexine],agonists or inducers of autophagy
3,"CCN(CC)CCOc1ccc(C(=C(Cl)c2ccccc2)c2ccccc2)cc1.O=C(O)CC(O)(CC(=O)O)C(=O)O [clomiphene citrate (Z,E)]",agonists or inducers of autophagy
4,CCCCc1cc2ccccc2c(OCCN(C)C)n1 [dimethisoquin],agonists or inducers of autophagy
5,O=C(Nc1ccccc1)OCC(CN1CCCCC1)OC(=O)Nc1ccccc1 (stereo not shown) [diperodon],agonists or inducers of autophagy
6,CNCC(O)c1ccc(OC(=O)C(C)(C)C)c(OC(=O)C(C)(C)C)c1 (stereo not shown) [dipivefrin],agonists or inducers of autophagy
7,COC(=O)Nc1nc2cc(C(=O)c3ccc(F)cc3)ccc2[nH]1 [flubendazole],agonists or inducers of autophagy
8,COCCCC/C(=N\OCCN)c1ccc(C(F)(F)F)cc1 [fluvoxamine],agonists or inducers of autophagy
9,CC12CC3CC(C)(C1)CC(N)(C3)C2 [memantine],agonists or inducers of autophagy
10,CN1CCCC(CC2c3ccccc3Sc3ccccc32)C1 (stereo not shown) [metixene],agonists or inducers of autophagy
11,CNCCC=C1c2ccccc2C=Cc2ccccc21 [norcyclobenzaprine],agonists or inducers of autophagy
12,CNCCC=C1c2ccccc2CCc2ccccc21 [nortriptyline],agonists or inducers of autophagy
13,CC(=O)[O-].[Hg+][c]1ccccc1 [phenylmercuric acetate],antagonists or inhibitors of autophagy
14,CC[N+](C)(CC)CCC[n+]1c(-c2ccccc2)c2cc(N)ccc2c2ccc(N)cc21.[I-].[I-] [propidium iodide],agonists or inducers of autophagy
15,N#Cc1c(Cl)c(Cl)c(Cl)c(C#N)c1Cl [tetrachlorisophthalonitrile],antagonists or inhibitors of autophagy

# Tested on: TRIM20
# Test: TRIM20 mRNA levels by quantitative RT-PCR in THP-1 cells
# Type: cell-based, human
# Settings: escalating doses for 4 h or 1,000 U/ml for indicated times
# Experimental: as §1, with “Data, means±SE, n≥3 experiments, except panel (C). Scale bars, 5 μm. *P<0.05, ^†P≥0.05 (t test in (B) or ANOVA (other panels)).” left out
# as §2
row,Molecule,TRIM20 expression
1,"IFN-γ: interferon-gamma (PeproTech), precision autophagy modulator (protein, UniProt P01579 24-161, looked up) Interferon gamma: QDPYVKEAENLKKYFNAGHSDVADNGTLFLGILKNWKEESDRKIMQSQIVSFYFKLFKNFKDDQSIQKSVETIKEDMNVKFFNSNKKKRDDFEKLTNYSVTDLNVQRKAIHELIQVMAELSPAAKTGKRKRSQMLFRG",responsive
